How the values were obtained:
[1] = spontaneous racemization of the hydantoin at a pH above 8; depends on substituent at the 5-position; cited from earlier work
[2] = Activity of DAPDH enzymes for reductive amination of 2-keto acids (NADPH decrease at 340 nm); format: biochemical
Description: The mutant DAPDH enzyme was assayed spectrophotometrically by monitoring the decrease in concentration of NADPH. The typical reductive amination reaction contained the following: 100 mM sodium carbonate/bicarbonate buffer, pH 9.0, 200 mM NH4Cl, 25 mM 2-keto acid, and 0.2 mM NADPH. The decrease in absorbance at 340 nm was monitored and an NADPH extinction coefficient of 6.22 mM^−1cm^−1 was used to correlate absorbance to concentration. Protein concentrations were determined via the Bradford method ^19 using bovine serum albumin as a protein standard.

Molecule	rate of racemization τ1/2 [1]	activity toward the reductive amination of 2-ketoacids to produce D-amino acids [2]
O=C1NC(=O)C(Cc2ccccc2)N1 (centres unmarked) [benzylhydantoin]	5 h	
CC(C)C1NC(=O)NC1=O (centres unmarked) [isopropylhydantoin]	56 h	
O=C1NC(=O)C(c2ccccc2)N1 (centres unmarked) [phenylhydantoin]	0.3 h	
tert-butylhydantoin	120 h	
wild-type diaminopimelate dehydrogenase enzyme from Corynebacterium glutamicum: wild-type diaminopimelate dehydrogenase from Corynebacterium glutamicum (ATTC #13032), SEQ ID NO. 2 (protein, listed as Corynebacterium glutamicum) MTNIRVAIVGYGNLGRSVEKLIAKQPDMDLVGIFSRRATLDTKTPVFDVADVDKHADDVDVLFLCMGSATDIPEQAPKFAQFACTVDTYDNHRDIPRHRQVMNEAATAAGNVALVSTGWDPGMFSINRVYAAAVLAEHQQHTFWGPGLSQGHSDALRRIPGVQKAVQYTLPSEDALEKARRGEAGDLTGKQTHKRQCFVVADAADHERIENDIRTMPDYFVGYEVEVNFIDEATFDSEHTGMPHGGHVITTGDTGGFNHTVEYILKLDRNPDFTASSQIAFGRAAHRMKQQGQSGAFTVLEVAPYLLSPENLDDLIARDV		little or no activity

— patent US7550277B2, “D-amino acid dehydrogenase and method of making D-amino acids” (Codexis, Inc., priority 2005, dated 2009)
